Like-named read-outs stand apart in the source and are kept apart here.
Experiments:
[1] = system: 3D7-strain P. falciparum asexual parasites; assay: P. falciparum asexual growth inhibition assay (Pf GIA); type: cell-based, Plasmodium falciparum; conditions: dose response confirmation; read-out: Pf asexual growth inhibition assays IC50
How it was run: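 LDH readout: absorbance at 650 nm after 10 min at room temperature with lactate/APAD/NBT/diaphorase mix on thawed plates. Cultures (0.25% parasitemia, 2% hematocrit) were treated 72 h at 37°C in low-oxygen gas. Inhibition was normalised to 50 μM chloroquine and DMSO; n=3 biological replicates.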

HepG2 cells = assay: HepG2 cytotoxicity assay; conditions: for Pb ODA (this manuscript) HepG2 cytoxicity: HepG2 cytotoxicity listed with the Pb ODA data set (this manuscript); for IC50: read-out: HepG2 cytotoxicity assay IC50, dose response confirmation
How it was run: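 Here viability after a 48 h compound incubation (37°C, humidified 5% CO2) is measured by fluorescence and expressed as percent inhibition, with doxorubicin at 50 μM and DMSO as the bounding controls.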

[2] = system: P. berghei ookinete development; conditions: for % inhibition, Replicate A / % inhibition, Replicate B: primary screen at 1 μM
[3] = read-out: Pb ODA (this manuscript) IC50, P. berghei ookinete development assay, this manuscript
[4] = read-out: Pb Ookinete development assay IC50, dose response confirmation
[5] = unified HepG2 value across the three screens
[6] = read-out: Pb ODA IC50, this manuscript
[7] = HepG2 values of the three screens unified

`Cc1[nH]c(C)c(-c2ccc(-c3ccc(OC(F)(F)F)cc3)cc2)c(=O)c1Br` [TCMDC-134726] was tested, and the IC50 [1] was 0.019 µM, the “Pb ODA (this manuscript) HepG2 cytoxicity” value (HepG2 cells) was 7.76 µM and the IC50 (HepG2 cells) was 7.76 µM. The “Is compound selective in assay? Pb ODA active?” value (from here on “Is compound selective”) [2] was 1 (key: 1: YES; 0: NO), the “% inhibition, Replicate A” value [2] was 101.74% and the “% inhibition, Replicate B” value [2] was 103.66%. For the same molecule, the IC50 [2, 3] was 0.0257 µM and the IC50 [2, 4] was 0.026 µM.
In the case of `COc1ccc(-c2ccc([N+](=O)[O-])cc2C(=O)NCC(C)Oc2ccc(C(F)(F)F)cc2)cc1` (stereo not drawn) [TCMDC-132304], the IC50 [1] is reported as 0.52 µM, the IC50 (HepG2 cells) is reported as 100 µM and the “Unified cytotox” value (HepG2 cells; [5]) is reported as 100.00 µM. The “Is compound selective” value ([2]; 1: YES, 0: NO) was 1 (1: YES), the “% inhibition, Replicate A” value [2] was 29.22% and the “% inhibition, Replicate B” value [2] was 50.52%. The IC50 [2, 6] was 4.01 µM and the IC50 [2, 4] was 4.01 µM.
For `CCCCN(C)CC#Cc1ccc2[nH]c(C)c(Cl)c(=O)c2c1` [TCMDC-136185], the IC50 [1] was 0.049 µM, the IC50 (HepG2 cells) was 3.09 µM and the “Unified cytotox” value (HepG2 cells; [5]) was 3.09 µM. The “Is compound selective” value ([2]; 1: YES, 0: NO) was 1 (1: YES), the “% inhibition, Replicate A” value [2] was 106.94% and the “% inhibition, Replicate B” value [2] was 101.22%. For the same molecule, the IC50 [2, 6] was 0.21 µM and the IC50 [2, 4] was 0.207 µM.
With `Cc1ccc(C2(CN3CCC(NC(=O)c4[nH]ncc4Cl)CC3)CCCCC2)cc1` [TCMDC-124838] the IC50 [1] was 0.00045 µM, the “Pb ODA (this manuscript) HepG2 cytoxicity” value (HepG2 cells) was 27.23 µM and the IC50 (HepG2 cells) was 27.2 µM. The “Is compound selective” value [2] was 1 (key: 1: YES; 0: NO), the “% inhibition, Replicate A” value [2] was 44.93% and the “% inhibition, Replicate B” value [2] was 53.77%. It also gave an IC50 [2, 3] of 1.43 µM and an IC50 [2, 4] of 1.43 µM.
Work on `Cc1[nH]c(C)c(-c2ccc(-c3ccc(Cl)cc3)nc2)c(=O)c1Cl` [TCMDC-136301] yielded an IC50 [1] of 0.193 µM, a Unified cytotox (HepG2 cells; [7]) of 100.00 µM and an IC50 (HepG2 cells) of 100 µM. For the same molecule, the “Is compound selective” value ([2]; 1: YES, 0: NO) was 1 (1: YES), the “% inhibition, Replicate A” value [2] was 94.15% and the “% inhibition, Replicate B” value [2] was 37.57%. The IC50 [2, 6] was 0.96 µM and the IC50 [2, 4] was 0.963 µM.
In the case of `CC(=O)Nc1cccc(Nc2c3ccccc3nc3ccccc23)c1` [TCMDC-123741], the IC50 [1] is reported as 1.47 µM, the IC50 (HepG2 cells) is reported as 12.3 µM and the “Unified cytotox” value (HepG2 cells; [5]) is reported as 12.30 µM. For the same molecule, the “Is compound selective” value ([2]; 1: YES, 0: NO) was 1 (1: YES), the “% inhibition, Replicate A” value [2] was 54.87% and the “% inhibition, Replicate B” value [2] was 64.71%. The IC50 [2, 6] was 0.69 µM and the IC50 [2, 4] was 0.686 µM.
In the case of `Cc1[nH]c(C)c(-c2ccc(CCc3ccc(C(F)(F)F)cc3)nc2)c(=O)c1Cl` [TCMDC-136051], the IC50 [1] is reported as 0.052 µM, the “HepG2 cytoxicity (Pb ODA, this manuscript)” value (HepG2 cells) is reported as 56.89 µM and the Unified cytotox (HepG2 cells; [7]) is reported as 56.89 µM. The IC50 (HepG2 cells) was 56.9 µM, the “Is compound selective” value ([2]; 1: YES, 0: NO) was 1 (1: YES) and the “% inhibition, Replicate A” value [2] was 100.56%. For the same molecule, the “% inhibition, Replicate B” value [2] was 100.86%, the IC50 [2, 6] was 0.14 µM and the IC50 [2, 4] was 0.144 µM.
For `COc1ccc2nccc([C@@H](O)CN3CCC(NC(=O)c4ccc5cc[nH]c5c4)CC3)c2c1.CS(=O)(=O)O` [TCMDC-140743], the IC50 [1] was 1.13 µM, the Unified cytotox (HepG2 cells; [7]) was 100.00 µM and the IC50 (HepG2 cells) was 100 µM. For the same molecule, the “Is compound selective” value ([2]; 1: YES, 0: NO) was 1 (1: YES), the “% inhibition, Replicate A” value [2] was 89.95% and the “% inhibition, Replicate B” value [2] was 58.25%. For the same molecule, the IC50 [2, 6] was 0.46 µM and the IC50 [2, 4] was 0.459 µM.
With `COc1ccc(NC2=C(c3ccccc3)C(=O)c3ccccc32)cn1` [TCMDC-125501] the IC50 [1] was 0.385 µM, the “Pb ODA (this manuscript) HepG2 cytoxicity” value (HepG2 cells) was 100.00 µM and the IC50 (HepG2 cells) was 100 µM. The “Is compound selective” value [2] was 1 (key: 1: YES; 0: NO), the “% inhibition, Replicate A” value [2] was 44.98% and the “% inhibition, Replicate B” value [2] was 57.32%. For the same molecule, the IC50 [2, 3] was 1.98 µM and the IC50 [2, 4] was 1.98 µM.
`Nc1nc(N)c2c(ccc3c2ccn3Cc2ccccn2)n1` [TCMDC-137980] was tested, and the IC50 [1] was 0.00115 µM, the “HepG2 cytoxicity (Pb ODA, this manuscript)” value (HepG2 cells) was 0.00767 µM and the Unified cytotox (HepG2 cells; [7]) was 0.00767 µM. For the same molecule, the IC50 (HepG2 cells) was 0.00767 µM, the “Is compound selective” value ([2]; 1: YES, 0: NO) was 0 (0: NO) and the “% inhibition, Replicate A” value [2] was 50.19%. For the same molecule, the “% inhibition, Replicate B” value [2] was 73.34% and the IC50 [2, 4] was 2.43 µM.
`CCCN1CCN(CCNc2c3ccccc3nc3ccccc23)CC1` [TCMDC-137549] was tested, and the IC50 [1] was 0.965 µM, the “HepG2 cytoxicity (Pb ODA, this manuscript)” value (HepG2 cells) was 7.41 µM and the Unified cytotox (HepG2 cells; [7]) was 7.41 µM. The IC50 (HepG2 cells) was 7.41 µM, the “Is compound selective” value ([2]; 1: YES, 0: NO) was 0 (0: NO) and the “% inhibition, Replicate A” value [2] was 61.15%. For the same molecule, the “% inhibition, Replicate B” value [2] was 52.76%, the IC50 [2, 6] was 2.01 µM and the IC50 [2, 4] was 2.01 µM.
With `Cc1[nH]c(C)c(-c2ccc(-c3ccc(OC(F)(F)F)cc3)cc2)c(=O)c1Cl` [TCMDC-136060] the IC50 [1] was 0.077 µM, the “HepG2 cytoxicity (Pb ODA, this manuscript)” value (HepG2 cells) was 64.57 µM and the Unified cytotox (HepG2 cells; [7]) was 64.57 µM. The IC50 (HepG2 cells) was 64.6 µM, the “Is compound selective” value ([2]; 1: YES, 0: NO) was 1 (1: YES) and the “% inhibition, Replicate A” value [2] was 87.72%. The “% inhibition, Replicate B” value [2] was 84.45%, the IC50 [2, 6] was 0.0538 µM and the IC50 [2, 4] was 0.054 µM.
With `CN1CCN(c2ccc(Nc3nccc(-c4cnn5ncccc45)n3)cc2Cl)CC1` [TCMDC-138688] the IC50 [1] was 0.929 µM, the IC50 (HepG2 cells) was 46.8 µM and the “Unified cytotox” value (HepG2 cells; [5]) was 46.77 µM. For the same molecule, the “Is compound selective” value ([2]; 1: YES, 0: NO) was 1 (1: YES), the “% inhibition, Replicate A” value [2] was 69.14% and the “% inhibition, Replicate B” value [2] was 64.46%. The IC50 [2, 6] was 1.8 µM and the IC50 [2, 4] was 1.8 µM.
In the case of `Cl.c1ccc(CN2CCN(CCNc3c4ccccc4nc4ccccc34)CC2)cc1` [TCMDC-137571], the IC50 [1] is reported as 0.446 µM, the “HepG2 cytoxicity (Pb ODA, this manuscript)” value (HepG2 cells) is reported as 23.99 µM and the Unified cytotox (HepG2 cells; [7]) is reported as 23.99 µM. For the same molecule, the IC50 (HepG2 cells) was 24 µM, the “Is compound selective” value ([2]; 1: YES, 0: NO) was 0 (0: NO) and the “% inhibition, Replicate A” value [2] was 19.05%. For the same molecule, the “% inhibition, Replicate B” value [2] was 55.37%, the IC50 [2, 6] was 2.89 µM and the IC50 [2, 4] was 2.9 µM.
In the case of `Cc1cc(=O)c(-c2ccc(Oc3cccc(C(F)(F)F)c3)cc2)c(C)[nH]1` [TCMDC-137536], the IC50 [1] is reported as 3.23 µM, the “Pb ODA (this manuscript) HepG2 cytoxicity” value (HepG2 cells) is reported as 100.00 µM and the IC50 (HepG2 cells) is reported as 100 µM. The “Is compound selective” value [2] was 1 (key: 1: YES; 0: NO), the “% inhibition, Replicate A” value ([2]; 1 µM) was 91.76% and the “% inhibition, Replicate B” value ([2]; 1 µM) was 80.63%. The IC50 [2, 3] was 2.65 µM and the IC50 [2, 4] was 2.65 µM.
For `CCOC(=O)[C@H](Cc1cc([N+](=O)[O-])c(Oc2ccc(OC)c(Cc3ccc(OC)c(C(C)C)c3)c2)c([N+](=O)[O-])c1)NC(=O)C(F)(F)F` [TCMDC-139398], the IC50 [1] was 9.49 µM, the IC50 (HepG2 cells) was 100 µM and the “Unified cytotox” value (HepG2 cells; [5]) was 100.00 µM. For the same molecule, the “Is compound selective” value ([2]; 1: YES, 0: NO) was 1 (1: YES), the “% inhibition, Replicate A” value [2] was 63.87% and the “% inhibition, Replicate B” value [2] was 33.42%. For the same molecule, the IC50 [2, 6] was 4.9 µM and the IC50 [2, 4] was 4.9 µM.
With `CCCCCCCc1c(C)nc2cccc(OC)c2c1O` [TCMDC-138014] the IC50 [1] was 1.99 µM, the “Pb ODA (this manuscript) HepG2 cytoxicity” value (HepG2 cells) was 5.50 µM and the IC50 (HepG2 cells) was 5.5 µM. The “Is compound selective” value [2] was 0 (key: 1: YES; 0: NO), the “% inhibition, Replicate A” value [2] was 63.12% and the “% inhibition, Replicate B” value [2] was 36.77%. It also gave an IC50 [2, 3] of 1.15 µM and an IC50 [2, 4] of 1.15 µM.
`Cl.Nc1nc(N)c2c(ccc3nn(S(=O)(=O)N4CCCC4)cc32)n1` [TCMDC-137854] was tested, and the IC50 [1] was 0.144 µM, the “Pb ODA (this manuscript) HepG2 cytoxicity” value (HepG2 cells) was 0.12 µM and the IC50 (HepG2 cells) was 0.12 µM. The “Is compound selective” value [2] was 0 (key: 1: YES; 0: NO), the “% inhibition, Replicate A” value [2] was 55.32% and the “% inhibition, Replicate B” value [2] was 26.78%. The IC50 [2, 3] was 5.3 µM and the IC50 [2, 4] was 5.29 µM.
For `CN1CCN(c2ccc(Nc3ncc(Cl)c(Nc4cccnc4C(N)=O)n3)cc2)CC1.Cl` [TCMDC-134164], the IC50 [1] was 0.084 µM, the “Pb ODA (this manuscript) HepG2 cytoxicity” value (HepG2 cells) was 4.62 µM and the IC50 (HepG2 cells) was 4.62 µM. For the same molecule, the “Is compound selective” value [2] was 1 (key: 1: YES; 0: NO), the “% inhibition, Replicate A” value [2] was 96.98% and the “% inhibition, Replicate B” value [2] was 90.60%. The IC50 [2, 3] was 0.23 µM and the IC50 [2, 4] was 0.226 µM.

From PMC6753678, “Fueling Open Innovation for Malaria Transmission-Blocking Drugs: Hundreds of Molecules Targeting Early Parasite Mosquito Stages” (Frontiers in Microbiology, 2019)
